Measurements published in patent US20220033397A1, “PHARMACEUTICAL COMPOUNDS AND THEIR USE AS INHIBITORS OF UBIQUITIN SPECIFIC PROTEASE 19 (USP19)” (ALMAC DISCOVERY LIMITED, priority 2018, published 2022).

biological target: T1, Full-length USP19 (Homo sapiens, UniProt O94966); assay: USP19 fluorescence polarisation (FP) homogeneous assay with Ubiquitin-Lys-TAMRA substrate; format: biochemical; conditions: 2.5 nM USP19, 30 min pre-incubation, average of at least two duplicate experiments
T1 construct: Full-length USP19 was purchased from Boston Biochem (E-576); purchased Boston Biochem E-576
T1 sequence (O94966 1-1318): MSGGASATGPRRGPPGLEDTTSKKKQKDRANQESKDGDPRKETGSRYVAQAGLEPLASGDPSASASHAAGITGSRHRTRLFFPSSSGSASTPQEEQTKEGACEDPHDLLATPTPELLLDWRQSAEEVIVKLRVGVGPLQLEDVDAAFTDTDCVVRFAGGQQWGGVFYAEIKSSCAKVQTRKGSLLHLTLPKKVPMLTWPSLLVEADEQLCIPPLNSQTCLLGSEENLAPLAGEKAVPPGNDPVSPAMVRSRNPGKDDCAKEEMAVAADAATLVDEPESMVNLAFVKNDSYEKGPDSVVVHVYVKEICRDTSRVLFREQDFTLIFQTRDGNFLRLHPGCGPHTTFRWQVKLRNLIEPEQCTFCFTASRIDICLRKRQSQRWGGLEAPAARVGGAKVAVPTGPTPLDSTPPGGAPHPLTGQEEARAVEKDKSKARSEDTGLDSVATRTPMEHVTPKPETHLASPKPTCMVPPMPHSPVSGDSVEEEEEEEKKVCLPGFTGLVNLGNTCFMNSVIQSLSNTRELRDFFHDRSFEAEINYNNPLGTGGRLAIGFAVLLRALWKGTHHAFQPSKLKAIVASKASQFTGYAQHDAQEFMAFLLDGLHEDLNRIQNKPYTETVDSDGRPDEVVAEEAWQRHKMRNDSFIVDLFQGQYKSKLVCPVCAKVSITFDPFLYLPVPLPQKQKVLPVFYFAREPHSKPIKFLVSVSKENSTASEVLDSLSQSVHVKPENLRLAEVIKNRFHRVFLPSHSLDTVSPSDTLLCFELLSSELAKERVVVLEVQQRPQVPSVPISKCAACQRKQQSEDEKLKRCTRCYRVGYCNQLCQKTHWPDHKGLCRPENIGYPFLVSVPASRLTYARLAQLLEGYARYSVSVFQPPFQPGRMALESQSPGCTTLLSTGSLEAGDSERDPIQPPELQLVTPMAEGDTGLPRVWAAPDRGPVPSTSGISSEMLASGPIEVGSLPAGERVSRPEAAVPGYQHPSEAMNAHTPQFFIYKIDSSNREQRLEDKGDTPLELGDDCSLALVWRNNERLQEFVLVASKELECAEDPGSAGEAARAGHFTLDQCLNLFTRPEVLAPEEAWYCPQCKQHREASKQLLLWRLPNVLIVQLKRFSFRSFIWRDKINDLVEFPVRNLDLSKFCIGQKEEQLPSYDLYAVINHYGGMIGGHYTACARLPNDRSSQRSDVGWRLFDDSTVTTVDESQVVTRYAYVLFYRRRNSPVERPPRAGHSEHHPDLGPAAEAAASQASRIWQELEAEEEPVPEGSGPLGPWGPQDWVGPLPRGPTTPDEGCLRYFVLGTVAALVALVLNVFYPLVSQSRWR
Outline: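 Full-length USP19 preincubated 30 min at RT with inhibitor (200 μM to 2 μM series, 8–18 points) before adding 500 nM Ubiquitin-Lys-TAMRA substrate.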

| Structure (SMILES) | IC50 [nM] |
| --- | --- |
| O=C(N1CC[C@@](O)(Cn2cnc(N3CC4CC4C3)cc2=O)C2(CCCC2)C1)N1CCNC[C@H]1c1cc(F)ccc1F (stereo partly drawn) [Example 389, 6-(3-Aza-bicyclo[3.1.0]hexan-3-yl)-3-(((S)-7-((R)-2-(2,5-difluoro-phenyl)piperazine-1-carbonyl)-10-hydroxy-7-aza-spiro[4.5]decan-10-yl)methyl)pyrimidin-4(3H)-one] | < 500 |
| O=C(NCc1ccccc1)N1CCC(O)(Cn2cnc(N3CCOCC3)cc2=O)C2(CCCC2)C1 (stereo not drawn) [Example 203, N-Benzyl-10-hydroxy-10-((4-morpholino-6-oxopyrimidin-1(6H)-yl)methyl)-7-azaspiro[4.5]decane-7-carboxamide] | 50000 to 250000 |
| C[C@H](CC1CCCCC1)C(=O)N1CCC(O)(Cn2cnc3[nH]ccc3c2=O)C2(CCCC2)C1 (stereo partly drawn) [Example 53, 3-((7-((R)-3-Cyclohexyl-2-methylpropanoyl)-10-hydroxy-7-azaspiro[4.5]decan-10-yl)methyl)-3,7-dihydro-4H-pyrrolo[2,3-d]pyrimidin-4-one] | 5000 to 50000 |
| C[C@H](CC1CCCCC1)C(=O)N1CCC(O)(Cn2cc(-c3ccccc3)ncc2=O)C(C)(C)C1 (stereo partly drawn) [Example 2, 1-((1-((R)-3-Cyclohexyl-2-methylpropanoyl)-4-hydroxy-3,3-dimethylpiperidin-4-yl)methyl)-5-phenylpyrazin-2(1H)-one] | 500 to 5000 |
| C[C@H](CC1CCCCC1)C(=O)N1CCC(O)(CN2CCNCC2=O)C2(CCCC2)C1 (stereo partly drawn) [Example 39] | 500 to 5000 |
| O=C(N1CC[C@@](O)(Cn2cnc(-c3ccccc3F)cc2=O)C2(CCCC2)C1)N1CCNC[C@H]1c1cc(F)cc(F)c1 [Example 392, 3-(((S)-7-((R)-2-(3,5-Difluoro-phenyl)piper-azine-1-carbonyl)-10-hydroxy-7-azaspiro[4.5]decan-10-yl)methyl)-6-(2-fluorophenyl)pyrimi-din-4(3H)-one] | < 500 |
| O=C(N1CC[C@@](O)(Cn2cnc(-c3cccc(F)c3)cc2=O)C2(CCCC2)C1)N1CCNC[C@H]1c1ccccc1 [Example 315, 6-(3-Fluorophenyl)-3-(((S)-10-hydroxy-7-((R)-2-phenylpiperazine-1-carbonyl)-7-azaspiro[4.5]decan-10-yl)methyl)pyrimidin-4(3H)-one] | < 500 |
| CN(C)c1cc(=O)n(C[C@]2(O)CCN(C(=O)N3CCOC[C@H]3c3ccccc3)CC23CCCC3)cn1 [Example 226, 6-(Dimethylamino)-3-(((S)-10-hydroxy-7-((R)-3-phenylmorpholine-4-carbonyl)-7-azaspiro[4.5]decan-10-yl)methyl)pyrimidin-4(3H)-one] | < 500 |
| COc1ccccc1-c1cc(=O)n(C[C@]2(O)CCN(C(=O)N3CCNC[C@H]3c3cc(F)ccc3F)CC23CCCC3)cn1 [Example 388, 3-(((S)-7-((R)-2-(2,5-Difluoro-phenyl)piperazine-1-carbonyl)-10-hydroxy-7-azaspiro [4.5]decan-10-yl)methyl)-6-(2-meth-oxyphenyl)pyrimi-din-4(3H)-one] | < 500 |
| O=C(N1CC[C@@](O)(Cn2ccc3ncncc3c2=O)C2(CCCC2)C1)N1CCNC[C@H]1c1ccccc1 [Example 185, 6-(((S)-10-Hydroxy-7-((R)-2-phenylpiperazine-1-carbonyl)-7-azaspiro[4.5]decan-10-yl)methyl)pyrido[4,3-d]pyrimidin-5(6H)-one] | < 500 |
| O=C(N[C@H](c1ccccc1)C(F)(F)F)N1CC[C@@](O)(Cn2ccc(-c3ccccc3)cc2=O)C2(CCCC2)C1 [Example 309, (S)-10-Hydroxy-10-((2-oxo-4-phenylpyridin-1(2H)-yl)methyl)-N—((R)-2,2,2-trifluoro-1-phenylethyl)-7-azaspiro[4.5]decane-7-carboxamide] | < 500 |
| O=C(N1CC[C@@](O)(Cn2cnc(-c3ccccc3)cc2=O)C2(CCCC2)C1)N1CCNC[C@H]1c1cccc(F)c1F [Example 367, 3-(((S)-7-((R)-2-(2,3-Difluoro-phenyl)piper-azine-1-carbonyl)-10-hydroxy-7-azaspiro[4.5]decan-10-yl)methyl)-6-phenylpyrimidin-4(3H)-one] | < 500 |
| O=C(N1CCC(O)(Cn2cnc3c(cnn3Cc3ccccc3)c2=O)C2(CCCC2)C1)N1CCNC[C@H]1c1ccccc1 (stereo partly drawn) [Example 172, 1-Benzyl-5-((10-hydroxy-7-((R)-2-phenylpiperazine-1-carbonyl)-7-azaspiro[4.5]decan-10-yl)methyl)-1,5-dihydro-4H-pyrazolo[3,4-d]pyrimidin-4-one] | < 500 |
| C[C@H](CC(=O)N1CCC(O)(CN2CCN(c3ccccc3F)CC2=O)CC1)c1ccccc1 [Example 24, (R)-4-(2-Fluorophenyl)-1-((4-hydroxy-1-(3-phenylbutanoyl)piperidin-4-yl)methyl)piperazin-2-one] | 50000 to 250000 |
| O=C(NCc1noc(C2CC2)n1)N1CC[C@@](O)(Cn2cnc(-c3ccccc3)cc2=O)C2(CCCC2)C1 [Example 218, (S)—N-((5-Cyclopropyl-1,2,4-oxadiazol-3-yl)methyl)-10-hydroxy-10-((6-oxo-4-phenylpyrimidin-1(6H)-yl)methyl)-7-azaspiro[4.5]decane-7-carboxamide] | 5000 to 50000 |
| O=C(N1CC[C@@](O)(Cn2cnc(-c3ccccc3)cc2=O)C2(CCCC2)C1)N1CCNC[C@H]1c1ccc(F)cc1F [Example 368, 3-(((S)-7-((R)-2-(2,4-Difluoro-phenyl)piper-azine-1-carbonyl)-10-hydroxy-7-azaspiro[4.5]decan-10-yl)methyl)-6-phenylpyrimidin-4(3H)-one] | < 500 |
| C[C@H](CC1CCCCC1)C(=O)N1CCC(O)(Cn2ccc3sccc3c2=O)C2(CCCC2)C1 (stereo partly drawn) [Example 142, 5-((7-((R)-3-Cyclohexyl-2-methylpropanoyl)-10-hydroxy-7-azaspiro[4.5]decan-10-yl)methyl)thieno[3,2-c]pyridin-4(5H)-one] | 5000 to 50000 |
| N[C@H]1CCN(C(=O)N2CC[C@@](O)(Cn3cnc(-c4ccccc4)cc3=O)C3(CCCC3)C2)[C@H](c2ccccc2)C1 [Example 396, 3-(((S)-7-((2S,4S)-4-Amino-2-phenyl-piperidine-1-car-bonyl)-10-hydroxy-7-azaspiro[4.5]de-can-10-yl)meth-yl)-6-phenyl-pyrimidin-4(3H)-one] | < 500 |
| O=C(NCc1ccccn1)N1CCC(O)(Cn2cnc(-c3ccccc3)cc2=O)C2(CCCC2)C1 (stereo not drawn) [Example 197, 10-Hydroxy-10-((6-oxo-4-phenylpyrimidin-1(6H)-yl)methyl)-N-(pyridin-2-ylmethyl)-7-azaspiro[4.5]decane-7-carboxamide] | 50000 to 250000 |
| O=C(N1CCC(O)(Cn2cnc(-c3ccccc3)cc2=O)C2(CCC2)C1)N1CCNC[C@H]1c1ccccc1 (stereo partly drawn) [Example 306, 3-((9-Hydroxy-6-((R)-2-phenylpiperazine-1-carbonyl)-6-azaspiro[3.5]nonan-9-yl)methyl)-6-phenylpyrimidin-4(3H)-one] | < 500 |
| C[C@H](CC1CCCCC1)C(=O)N1CCC(O)(Cn2ccc3ccncc3c2=O)C2(CCCC2)C1 (stereo partly drawn) [Example 137, 2-((7-((R)-3-Cyclohexyl-2-methylpropanoyl)-10-hydroxy-7-azaspiro[4.5]decan-10-yl)methyl)-2,7-naphthyridin-1(2H)-one] | < 500 |
| O=C(N1CCC(O)(Cn2cnc(-c3ccccc3)cc2=O)C2(CCCC2)C1)N1CCSCC1c1ccccc1 [Example 333, (S)-3-((10-Hydroxy-7-(3-phenylthiomorpholine-4-carbonyl)-7-azaspiro[4.5]decan-10-yl)methyl)-6-phenylpyrimidin-4(3H)-one] | < 500 |
| N=S1(=O)CCN(C(=O)N2CC[C@@](O)(Cn3cnc(-c4ccccc4)cc3=O)C3(CCCC3)C2)C(c2ccccc2)C1 (stereo partly drawn) [Example 334, 3-(((10S)-10-Hydroxy-7-(1-imino-1-oxido-3-phenyl-1λ^6-thiomorpholine-4-carbonyl)-7-azaspiro[4.5]decan-10-yl)methyl)-6-phenylpyrimidin-4(3H)-one] | < 500 |
| C[C@H](CC1CCCCC1)C(=O)N1CCC(O)(CN2Cc3ccccc3C2=O)C(C)(C)C1 (stereo partly drawn) [Example 27, 2-((1-((R)-3-Cyclohexyl-2-methylpropanoyl)-4-hydroxy-3,3-dimethylpiperidin-4-yl)methyl)isoindolin-1-one] | 5000 to 50000 |
